Publication PMC5824666, “The P-type ATPase inhibiting potential of polyoxotungstates” (Metallomics, 2018)
pIC50: −log10 of the molar value. Where “and” joins values, the source holds several entries; their conditions need not be identical. Equal values may be shown once. Read-outs that look alike come from different tables or passages of the source.

Assays:
[1] = system: Na^+/K^+-ATPase from basal membrane of opercular epithelium; test: Epithelial short circuit current (Isc) in Ussing chambers ex vivo, POT added basolaterally; format: cell-based, killifish (F. heteroclitus); conditions: basolateral; for Maximum inhibition: % of basal Isc
Excerpt: Epithelial tissues can transport ions and generate a transepithelial voltage termed “active transport potential”, which is caused by the asymmetric distribution of ion channels and transporters on the apical and basolateral membranes. The net movement of charges from the apical to the basolateral side (and vice versa) generates a voltage equal to the voltage differences between the apical and basolateral membranes. Ex vivo, the short circuit current (Isc) is an accurate reflection of the secretory/absorptive capacity of the tissue when short-circuited. In the opercular epithelium of killifish used for our studies, Isc is a direct measure of apical chloride secretion mediated by chloride channels, which relies on an intact basolateral Na^+/K^+-ATPase function.[43],[44]
Methodology for the ex vivo opercular epithelia preparation followed our current methods.[45] Fish were anaesthetized with 2-phenoxyethanol (1 : 2000 v/v), sacrificed by decapitation and the cranium was cut longitudinally. The gills and other tissue remains were removed carefully and the epithelial skin covering the opercular bone were dissected out and transferred to fresh-gassed saline (99.7 : 0.3 O2/CO2) with the following composition (all values in mM): NaCl, 160; MgSO4, 0.93; NaH2PO4, 3.0; CaCl2, 1.5; NaHCO3, 17.85; KCl, 3.0; glucose, 5.5; HEPES (pH 7.8), 5.0. The epithelia were overlaid onto a thin bore polythene net, protected between two parafilm gaskets and pinned over the circular aperture of a tissue holder (P2410, 0.20 cm^2, Physiological Instruments, San Diego, USA), with the perimeter area lightly greased with vacuum silicone to minimize tissue edge damage. The mounted tissue was positioned between the two halves of the Ussing chamber (P2400, Physiological Instruments, San Diego, USA) with 4 mL of gassed saline at 22 °C and gassed with a 99.7 : 0.3 O2/CO2 mix to provide oxygenation, good mixing by gas lift and pH control (pH = 7.8).
The preparations were left to stand for at least 60 min or until a steady basal measurement of bioelectrical variables was achieved. Measurement of the short circuit current (Isc, μA cm^–2) was performed at symmetric conditions under voltage clamp to 0 mV. The open circuit potential (Vt, mV) and Isc were monitored by means of Ag/AgCl electrodes connected to the chambers by 3 mm bore agar bridges (1 M KCl in 3% agar). Clamping of epithelia to 0 mV and recording of Isc was performed by VCC600 voltage clamp amplifiers (Physiologic Instruments, San Diego, USA). Epithelial resistance (Rt, Ω cm^2) was manually calculated (Ohm's law) using the current deflections induced by bilateral 1 mV pulses of 3 s every minute. Bioelectrical data were continuously digitized through a Lab-Trax-4 (WPI, Sarasota, US) onto a Macbook laptop using Labscribe3 Software (Iworks systems, Dover, US). Upon signal baseline stabilization, freshly prepared POT solutions were added to the basal or the apical side of the chamber (Fig. 2) and the effects on the Na^+/K^+-ATPase from basal membrane or the chloride channel forming the apical membrane were followed for 60 to 90 minutes. The maximum inhibitory effect (in %) of the POTs on the ATPase activity and the effective time (ET50), which is the time necessary to reach 50% of the maximum effects (in minutes), was determined by measuring the % decrease of short circuit current (Isc, μA cm^–2) in the absence (100% activity) and presence of the POTs. All the experiments were performed at least in triplicates. Calculations of the ET50 and maximum effect values were performed using GraphPad Prism version 6.00 for Macintosh (GraphPad Software, La Jolla California USA).

[2] = biological target: T1, SR Ca^2+-ATPase (Oryctolagus cuniculus, UniProt P04191); test: Steady-state SR Ca2+-ATPase ATP hydrolysis, coupled pyruvate kinase/lactate dehydrogenase assay; format: biochemical, rabbit; conditions: for pIC50: SR vesicles from skeletal muscle, 25 °C, 2.5 mM ATP, calcimycin 4% (w/w); for Type of inhibition of Ca^2+-ATPase: Lineweaver-Burk, TeW6 at 100 μM
T1 construct: Isolated sarcoplasmic reticulum vesicles (SRVs), prepared from rabbit skeletal muscles as described elsewhere; from tissue; host or cells: rabbit skeletal muscle, sarcoplasmic reticulum vesicles
Protocol: All reagents used for the preparation of the calcium pump vesicles were purchased from Sigma-Aldrich (Portugal). Isolated sarcoplasmic reticulum vesicles (SRVs), prepared from rabbit skeletal muscles as described elsewhere,[33] were suspended in 0.1 M KCl, 10 mM HEPES (pH 7.0), diluted 1 : 1 with 2.0 M sucrose and frozen in liquid nitrogen for storage at –80 °C. The protein concentration was determined spectrophotometrically at 595 nm in the presence of 0.125% of sodium dodecyl sulphate (SDS) by Bradford method with bovine serum albumin as a standard. The percentage of each protein present in the SRV preparations was determined by densitometry analysis of SDS-PAGE (7.5% acrylamide) protein bands. The SR Ca^2+-ATPase constituted at least 70% of the total protein amount in the SR-vesicles according to SDS-PAGE. The sarcoplasmic reticulum Ca^2+-ATPase-1 (SERCA-1) was the predominant isoform in our SR preparations.[42]
Steady-state assays of the SR Ca^2+-ATPase were measured spectrophotometrically at 25 °C using the coupled enzyme pyruvate kinase/lactate dehydrogenase assay (Scheme 1) as described elsewhere.[42] Briefly, after the addition of the enzymes (pyruvate kinase and lactate dehydrogenase) and the substrate phosphoenolpyruvate to the medium, the experiment was initiated by adding NADH (0.25 mM) and the vesicles containing Ca^2+-ATPase (10 μg mL^–1).
ATP (2.5 mM) was added and the absorbance was recorded for about 1 minute (basal activity). Afterwards, the calcium ionophore calcimycin 4% (w/w), which releases again the Ca^2+ ions, that were pumped in by the ATPase, was added and the decreasing NADH absorbance at 340 nm was measured for about 2 minutes (uncoupled ATPase activity). This was done to increase the ATPase activity (due to the ionophore-mediated impairment of the Ca^2+ gradient) in order to better study the effect of the inhibitors and to ensure that the SR Ca^2+-ATPase vesicles are not leaky. For the experiments including POTs, freshly prepared POT solutions (10 mM and 1 mM for all POTs except for Se2W29 1 mM and 0.1 mM) were added to the medium prior to the addition of SR Ca^2+-ATPase. The ATPase activity and its inhibition was measured taking into account the decrease of the OD (optical density) per minute in the absence (100%) and in the presence of the investigated POTs.[33] The detection system was not affected by the POTs themselves (not even at their highest concentrations), which was confirmed by a rapid decrease in absorbance at 340 nm upon addition of 40 μM ADP after the assay. All experiments were performed at least in triplicates. The inhibitory power of the investigated POTs was evaluated by determining the respective IC50 value, that is, the POT concentration needed to induce a 50% inhibition of the Ca^2+-ATPase enzyme activity.

[3] = biological target: T1, SR Ca^2+-ATPase; parameters: method as in PMID 22178669; conditions: cited from earlier work; for pIC50: previously reported; for Type of inhibition of Ca^2+-ATPase: regarding the natural ligand MgATP
[4] = biological target: Na^+/K^+-ATPase; conditions: previous studies; cited from earlier work

T1 sequence (P04191 1-994 isoform P04191-2): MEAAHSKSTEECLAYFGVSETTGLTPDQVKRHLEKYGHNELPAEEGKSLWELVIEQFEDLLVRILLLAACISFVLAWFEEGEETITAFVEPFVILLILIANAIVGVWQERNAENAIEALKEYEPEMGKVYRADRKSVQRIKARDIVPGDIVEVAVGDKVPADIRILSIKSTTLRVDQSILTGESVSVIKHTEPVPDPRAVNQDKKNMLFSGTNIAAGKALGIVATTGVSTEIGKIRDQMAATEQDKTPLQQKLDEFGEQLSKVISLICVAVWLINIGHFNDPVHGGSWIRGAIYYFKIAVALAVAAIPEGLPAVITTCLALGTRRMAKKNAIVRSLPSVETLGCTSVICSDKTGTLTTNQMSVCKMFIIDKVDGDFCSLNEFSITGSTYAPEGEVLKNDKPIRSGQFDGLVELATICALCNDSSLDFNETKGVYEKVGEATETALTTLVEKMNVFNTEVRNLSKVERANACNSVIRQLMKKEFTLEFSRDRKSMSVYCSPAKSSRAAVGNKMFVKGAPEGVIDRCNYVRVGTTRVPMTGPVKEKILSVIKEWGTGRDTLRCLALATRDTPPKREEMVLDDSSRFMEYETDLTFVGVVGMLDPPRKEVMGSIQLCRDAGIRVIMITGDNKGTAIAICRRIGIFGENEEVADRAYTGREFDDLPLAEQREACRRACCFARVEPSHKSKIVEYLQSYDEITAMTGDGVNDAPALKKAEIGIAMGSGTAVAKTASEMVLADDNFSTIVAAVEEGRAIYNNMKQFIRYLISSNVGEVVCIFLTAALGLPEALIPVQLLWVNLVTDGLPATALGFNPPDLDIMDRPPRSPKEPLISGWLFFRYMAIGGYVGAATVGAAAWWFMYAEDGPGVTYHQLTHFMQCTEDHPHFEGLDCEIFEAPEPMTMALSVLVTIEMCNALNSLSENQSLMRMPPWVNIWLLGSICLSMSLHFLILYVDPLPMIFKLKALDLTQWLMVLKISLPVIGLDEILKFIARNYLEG

Question: With K6H2[TiW11CoO40]·13H2O [CoW11Ti] as the molecule, how does the “ET50 (time to reach 50% of the maximum effect)” value ([1]; 10 μM compound) read?
Answer: 10 (10 μM) min

Question: What about the Maximum inhibition ([1]; 10 μM compound) of the same molecule?
Answer: 75%

Question: Which results are given for K14[As2W19O67(H2O)]·23H2O?
Answer: pIC50 [2]: 4.55; Effect on ATPase activity after 30 minutes ([1]; 10 μM compound): no effect

Question: Which “Type of inhibition of Ca^2+-ATPase” value [2] does the source give for K6[α-P2W18O62]·14H2O here?
Answer: mixed type of inhibition

Question: And the “ET50 (time to reach 50% of the maximum effect)” value ([1]; 0.5 μM compound)?
Answer: 8.2 (0.5 μM) min

Question: And the Maximum inhibition ([1]; 0.5 μM compound)?
Answer: 86%

Question: What about the “ET50 (time to reach 50% of the maximum effect)” value ([1]; 1 μM compound) of the same molecule?
Answer: 6.5 (1 μM) min

Question: And the Maximum inhibition ([1]; 1 μM compound, 1 µM)?
Answer: 99%

Question: What about the “ET50 (time to reach 50% of the maximum effect)” value ([1]; 10 μM compound) of the same molecule?
Answer: 4.3 (10 μM) min

Question: And the Maximum inhibition ([1]; 10 μM compound)?
Answer: ~100%

Question: With Na6[TeW6O24]·22H2O as the molecule, how does the “Type of inhibition of Ca^2+-ATPase” value [2] read?
Answer: mixed type of inhibition

Question: What about the pIC50 [2] of the same molecule?
Answer: 3.70

Question: And the “ET50 (time to reach 50% of the maximum effect)” value ([1]; 10 μM compound)?
Answer: 60 (10 μM) min

Question: What about the Maximum inhibition ([1]; 10 μM compound) of the same molecule?
Answer: 10%

Question: With Na10[A-α-SiW9O34]·16H2O as the molecule, how does the pIC50 [2] read?
Answer: 4.80

Question: And the “Effect on ATPase activity after 30 minutes” value ([1]; 10 μM compound)?
Answer: no effect

Question: With K12[α-H2P2W12O48]·16H2O as the molecule, how does the pIC50 [2] read?
Answer: 4.96

Question: What about the “Effect on ATPase activity after 30 minutes” value ([1]; 10 μM compound) of the same molecule?
Answer: no effect

Question: For K9(C2H8N)5[H10Se2W29O103]·30H2O, which “ET50 (time to reach 50% of the maximum effect)” value ([1]; 1 μM compound) is on record?
Answer: 6.5 (1 μM) min

Question: What about the Maximum inhibition ([1]; 1 μM compound) of the same molecule?
Answer: 14%

Question: What does the source list for decaniobate [Nb10]?
Answer: pIC50 [3]: 4.46; Type of inhibition of Ca^2+-ATPase [3]: non-competitive

Question: With `[O]=[W](=[O])([OH])[OH]` [orthotungstate] as the molecule, how does the pIC50 [3] read?
Answer: 3.40

Question: And the pIC50 [4]?
Answer: 2.82

Question: With Na9[B-α-AsW9O33]·27H2O as the molecule, how does the pIC50 [2] read?
Answer: 4.70

Question: And the “ET50 (time to reach 50% of the maximum effect)” value ([1]; 10 μM compound)?
Answer: 8.5 min and 8.5 (10 μM) min

Question: And the Maximum inhibition ([1]; 10 μM compound)?
Answer: 66%

Question: Which results are given for Na12[H4W22O74]·50H2O?
Answer: pIC50 [2]: 4.17; Effect on ATPase activity after 30 minutes ([1]; 10 μM compound): no effect

Question: With `C[C@@H]1O[C@@H](O[C@H]2C[C@@H](O)[C@]3(CO)[C@H]4[C@H](O)C[C@]5(C)[C@@H](C6=CC(=O)OC6)CC[C@]5(O)[C@@H]4CC[C@]3(O)C2)[C@H](O)[C@H](O)[C@H]1O` [Ouabain, reference compound] as the molecule, how does the “ET50 (time to reach 50% of the maximum effect)” value ([1]; 10 μM compound) read?
Answer: 3.2 ± 0.2 min and 3.2 min and 3.2 (10 μM) min

Question: What about the Maximum inhibition ([1]; 10 μM compound) of the same molecule?
Answer: 100%

Question: With `[O]=[V]([O-])([O-])[O][V]1(=[O])[O][V]2(=[O])[O][V](=[O])([O][V](=[O])([O-])[O-])[O][V](=[O])([O]2)[O][V]2(=[O])[O][V](=[O])([O][V](=[O])([O-])[O-])[O][V](=[O])([O]1)[O]2` (stereo not shown) [V10, decavanadate] as the molecule, how does the pIC50 [3] read?
Answer: 4.82

Question: What about the “Type of inhibition of Ca^2+-ATPase” value [3] of the same molecule?
Answer: non-competitive
